For series [1] the following is noted: cited from earlier work.
For series [2], the target named is T1, human recombinant dopamine D4 receptor (Homo sapiens, UniProt P21917).
T1 sequence (P21917 1-419): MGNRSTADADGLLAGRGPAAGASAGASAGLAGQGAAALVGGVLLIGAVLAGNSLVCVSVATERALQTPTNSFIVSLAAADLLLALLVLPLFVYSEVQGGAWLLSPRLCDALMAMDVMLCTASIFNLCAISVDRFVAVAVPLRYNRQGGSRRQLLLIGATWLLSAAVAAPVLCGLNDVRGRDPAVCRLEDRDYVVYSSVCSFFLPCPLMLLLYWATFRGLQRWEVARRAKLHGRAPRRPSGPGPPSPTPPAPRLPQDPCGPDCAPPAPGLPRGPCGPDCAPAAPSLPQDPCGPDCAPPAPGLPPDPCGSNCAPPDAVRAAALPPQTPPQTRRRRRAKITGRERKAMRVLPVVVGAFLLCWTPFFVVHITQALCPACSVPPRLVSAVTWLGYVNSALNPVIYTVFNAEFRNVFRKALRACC
The settings on record: saturating concentrations of dopamine; read-out: D4 efficacy IC50 ± SEM; cited from earlier work.

The target in series [3] is T1, human recombinant dopamine D4 receptor. The settings on record: read-out: D4 affinity Ki ± SEM; cited from earlier work.
Series [4] addresses human recombinant dopamine D3 receptor (Homo sapiens, UniProt P35462). The settings on record: read-out: D3 affinity Ki ± SEM; cited from earlier work.
For another series, the system named is PD model rats. As to the kind of experiment: Stepping test (adjusting steps) in PD model rats. Type of series: in vivo, rat. The settings on record: 6-OH-Busp 3 mg/kg, sc added to L-DOPA 10 mg/kg. As to the method:
The stepping test (Schallert et al., 1992) was performed as described by Kirik et al., 2001 with little modifications. Briefly, the rat was held by the experimenter fixing its hindlimbs with one hand and the forelimb not to be monitored with the other, while the unrestrained forepaw was touching the table. The number of adjusting steps was counted, while the rat was moved sideways along the table surface (90 cm in 5 s), in the forehand and backhand direction, for both forelimbs, and the average of the steps in the two directions is considered.
30 male PD model rats were used for adjusting steps test with the following groups: • 1. Vehicle 1+Vehicle 2 (n=7) • 2. Vehicle 1+L-DOPA (10 mg/kg, sc) (n=7) • 3. 6-OH-Busp (3 mg/kg, sc)+Vehicle 2 (n=8) • 4. 6-OH-Busp (3 mg/kg, sc)+L-DOPA (10 mg/kg, sc)
The PD rats were handled for 3 consecutive days. Vehicle 1 or 6-OH-Busp will s.c. dosed 61 min before adjusting steps test. Vehicle 2 or L-DOPA/Benserazide dosed 60 min before adjusting steps test. On testing day, the rats were held by both hind limbs and the untested forepaw. The test forepaw was placed on a flat surface and dragged in the forehand direction for 90 cm distance over 5 s. The number of adjusting steps was counted for both paws in the backhand and forehand directions of movement. […] Data were analyzed and graphed by Graph Pad Prism 6.

Chain of human recombinant dopamine D3 receptor (P35462 whole entry): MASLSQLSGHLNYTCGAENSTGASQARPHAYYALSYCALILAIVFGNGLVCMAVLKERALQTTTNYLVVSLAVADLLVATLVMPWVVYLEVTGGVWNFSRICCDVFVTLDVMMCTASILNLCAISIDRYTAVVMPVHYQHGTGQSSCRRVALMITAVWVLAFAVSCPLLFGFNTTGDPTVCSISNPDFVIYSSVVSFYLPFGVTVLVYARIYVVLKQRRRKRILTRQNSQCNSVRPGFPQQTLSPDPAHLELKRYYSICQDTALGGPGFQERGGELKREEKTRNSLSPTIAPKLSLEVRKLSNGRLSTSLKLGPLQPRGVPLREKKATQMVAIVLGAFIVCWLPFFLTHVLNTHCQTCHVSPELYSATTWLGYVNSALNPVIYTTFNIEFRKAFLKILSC

`O=C1CC2(CCCC2)C(O)C(=O)N1CCCCN1CCN(c2ncccn2)CC1` (racemic) [6-OH-Busp]: the “exposure (area under the concentration-time profile) of metabolite relative to parent compound” value in series [1] (oral dosing of buspirone in rats) was 12 fold. The Bioavailability in series [1] (rats) is on record as 19%. For the same compound, in series [1] (rats), the plasma half-life is 1.2 ± 0.2 h. In series [2], the IC50 – broadly, the concentration that gives 50% inhibition – is 850 ± 490 nM. For the same compound, the values for the inhibitory constant (Ki) in series [3] and in series [4] were 40.4 ± 17.5 nM and 795 ± 84 nM, respectively. Also, the “effect on adjusting steps of adding 6-OH-Busp to L-DOPA” value with PD model rats is reported as “no significant different effect”.

Values taken from patent US11478476B2 (CONTERA PHARMA APS, priority 2014, dated 2022).
